Measured values taken from the NIST ThermoML archive (doi:10.1016/j.fluid.2016.10.026).
± gives the expanded uncertainty stated by the source.

Conditions: for mass density / kinematic viscosity / speed of sound / vapor or sublimation pressure: Liquid; for mass density: Vibrating tube method; for surface tension liquid-gas: Drop volume; for kinematic viscosity: Capillary tube (Ostwald / Ubbelohde) method; for speed of sound: Frequency=3 MHz, Sing-around technique in a fixed-path interferometer; for vapor or sublimation pressure: Ebulliometric method (Recirculating still)

Which results are given for CC(=O)c1cccs1 [2-acetylthiophene]?
mass density (313.15 K, 25000 kPa): 1167.08 ± 0.34 kg/m3; mass density (313.15 K, 30000 kPa): 1169.85 ± 0.37 kg/m3; mass density (313.15 K, 35000 kPa): 1172.56 ± 0.4 kg/m3; mass density (313.15 K, 40000 kPa): 1175.19 ± 0.43 kg/m3; mass density (313.15 K, 45000 kPa): 1177.74 ± 0.46 kg/m3; mass density (313.15 K, 50000 kPa): 1180.24 ± 0.49 kg/m3; mass density (313.15 K, 55000 kPa): 1182.67 ± 0.53 kg/m3; mass density (313.15 K, 60000 kPa): 1185.04 ± 0.58 kg/m3; mass density (313.15 K, 65000 kPa): 1187.36 ± 0.62 kg/m3; surface tension liquid-gas (315.65 K): 41.14 ± 0.45 mN/m; kinematic viscosity (315.65 K, 101 kPa): 1.58e-06 ± 1.8e-08 m2/s; speed of sound (315.65 K, 101 kPa): 1409 ± 0.91 m/s; mass density (315.65 K, 101 kPa): 1149.57 ± 0.16 kg/m3; surface tension liquid-gas (318.15 K): 40.87 ± 0.45 mN/m; mass density (318.15 K, 100 kPa): 1147.15 ± 0.23 kg/m3; kinematic viscosity (318.15 K, 101 kPa): 1.51e-06 ± 1.7e-08 m2/s; speed of sound (318.15 K, 101 kPa): 1400.3 ± 0.9 m/s; mass density (318.15 K, 101 kPa): 1147.18 ± 0.16 kg/m3; mass density (318.15 K, 2000 kPa): 1148.56 ± 0.24 kg/m3; mass density (318.15 K, 5000 kPa): 1150.49 ± 0.25 kg/m3; mass density (318.15 K, 7000 kPa): 1151.77 ± 0.26 kg/m3; mass density (318.15 K, 10000 kPa): 1153.65 ± 0.27 kg/m3; mass density (318.15 K, 15000 kPa): 1156.74 ± 0.29 kg/m3; mass density (318.15 K, 20000 kPa): 1159.72 ± 0.31 kg/m3; mass density (318.15 K, 25000 kPa): 1162.64 ± 0.33 kg/m3; mass density (318.15 K, 30000 kPa): 1165.47 ± 0.36 kg/m3; mass density (318.15 K, 35000 kPa): 1168.21 ± 0.39 kg/m3; mass density (318.15 K, 40000 kPa): 1170.9 ± 0.42 kg/m3; mass density (318.15 K, 45000 kPa): 1173.5 ± 0.45 kg/m3; mass density (318.15 K, 50000 kPa): 1176.04 ± 0.48 kg/m3; mass density (318.15 K, 55000 kPa): 1178.53 ± 0.52 kg/m3; mass density (318.15 K, 60000 kPa): 1180.93 ± 0.57 kg/m3; mass density (318.15 K, 65000 kPa): 1183.29 ± 0.61 kg/m3; surface tension liquid-gas (320.65 K): 40.58 ± 0.45 mN/m; kinematic viscosity (320.65 K, 101 kPa): 1.45e-06 ± 1.7e-08 m2/s; speed of sound (320.65 K, 101 kPa): 1391.8 ± 0.9 m/s; mass density (320.65 K, 101 kPa): 1144.79 ± 0.15 kg/m3; surface tension liquid-gas (323.15 K): 40.27 ± 0.44 mN/m; mass density (323.15 K, 100 kPa): 1142.34 ± 0.23 kg/m3; kinematic viscosity (323.15 K, 101 kPa): 1.39e-06 ± 1.6e-08 m2/s; speed of sound (323.15 K, 101 kPa): 1383.4 ± 0.9 m/s; mass density (323.15 K, 101 kPa): 1142.39 ± 0.15 kg/m3; mass density (323.15 K, 2000 kPa): 1143.79 ± 0.24 kg/m3; mass density (323.15 K, 5000 kPa): 1145.78 ± 0.25 kg/m3; mass density (323.15 K, 7000 kPa): 1147.09 ± 0.25 kg/m3; mass density (323.15 K, 10000 kPa): 1149.02 ± 0.26 kg/m3; mass density (323.15 K, 15000 kPa): 1152.17 ± 0.28 kg/m3; mass density (323.15 K, 20000 kPa): 1155.23 ± 0.31 kg/m3; mass density (323.15 K, 25000 kPa): 1158.22 ± 0.33 kg/m3; mass density (323.15 K, 30000 kPa): 1161.08 ± 0.36 kg/m3; mass density (323.15 K, 35000 kPa): 1163.89 ± 0.38 kg/m3; mass density (323.15 K, 40000 kPa): 1166.63 ± 0.41 kg/m3; mass density (323.15 K, 45000 kPa): 1169.28 ± 0.44 kg/m3; mass density (323.15 K, 50000 kPa): 1171.88 ± 0.48 kg/m3; mass density (323.15 K, 55000 kPa): 1174.4 ± 0.51 kg/m3; mass density (323.15 K, 60000 kPa): 1176.86 ± 0.55 kg/m3; mass density (323.15 K, 65000 kPa): 1179.25 ± 0.6 kg/m3; surface tension liquid-gas (325.65 K): 39.97 ± 0.44 mN/m; kinematic viscosity (325.65 K, 101 kPa): 1.34e-06 ± 1.6e-08 m2/s; speed of sound (325.65 K, 101 kPa): 1375 ± 0.9 m/s; mass density (325.65 K, 101 kPa): 1140 ± 0.15 kg/m3; surface tension liquid-gas (328.15 K): 39.7 ± 0.4 mN/m; mass density (328.15 K, 100 kPa): 1137.56 ± 0.23 kg/m3; kinematic viscosity (328.15 K, 101 kPa): 1.29e-06 ± 1.5e-08 m2/s; speed of sound (328.15 K, 101 kPa): 1366.5 ± 0.9 m/s; mass density (328.15 K, 101 kPa): 1137.61 ± 0.15 kg/m3; mass density (328.15 K, 2000 kPa): 1139.02 ± 0.24 kg/m3; mass density (328.15 K, 5000 kPa): 1141.06 ± 0.25 kg/m3; mass density (328.15 K, 7000 kPa): 1142.39 ± 0.25 kg/m3; mass density (328.15 K, 10000 kPa): 1144.38 ± 0.26 kg/m3; mass density (328.15 K, 15000 kPa): 1147.6 ± 0.28 kg/m3; mass density (328.15 K, 20000 kPa): 1150.78 ± 0.3 kg/m3; mass density (328.15 K, 25000 kPa): 1153.79 ± 0.33 kg/m3; mass density (328.15 K, 30000 kPa): 1156.77 ± 0.35 kg/m3; mass density (328.15 K, 35000 kPa): 1159.56 ± 0.38 kg/m3; mass density (328.15 K, 40000 kPa): 1162.34 ± 0.41 kg/m3; mass density (328.15 K, 45000 kPa): 1165.07 ± 0.44 kg/m3; mass density (328.15 K, 50000 kPa): 1167.69 ± 0.47 kg/m3; mass density (328.15 K, 55000 kPa): 1170.28 ± 0.5 kg/m3; mass density (328.15 K, 60000 kPa): 1172.79 ± 0.54 kg/m3; mass density (328.15 K, 65000 kPa): 1175.21 ± 0.58 kg/m3; surface tension liquid-gas (330.65 K): 39.43 ± 0.44 mN/m; kinematic viscosity (330.65 K, 101 kPa): 1.24e-06 ± 1.4e-08 m2/s; speed of sound (330.65 K, 101 kPa): 1358.1 ± 0.89 m/s; mass density (330.65 K, 101 kPa): 1135.21 ± 0.15 kg/m3; surface tension liquid-gas (333.15 K): 39.12 ± 0.43 mN/m; mass density (333.15 K, 100 kPa): 1132.76 ± 0.23 kg/m3; kinematic viscosity (333.15 K, 101 kPa): 1.2e-06 ± 1.4e-08 m2/s; speed of sound (333.15 K, 101 kPa): 1349.5 ± 0.89 m/s; mass density (333.15 K, 101 kPa): 1132.81 ± 0.15 kg/m3; mass density (333.15 K, 2000 kPa): 1134.24 ± 0.24 kg/m3; mass density (333.15 K, 5000 kPa): 1136.33 ± 0.24 kg/m3; mass density (333.15 K, 7000 kPa): 1137.7 ± 0.25 kg/m3; mass density (333.15 K, 10000 kPa): 1139.72 ± 0.26 kg/m3; mass density (333.15 K, 15000 kPa): 1143.11 ± 0.28 kg/m3; mass density (333.15 K, 20000 kPa): 1146.25 ± 0.3 kg/m3; mass density (333.15 K, 25000 kPa): 1149.39 ± 0.32 kg/m3; mass density (333.15 K, 30000 kPa): 1152.35 ± 0.35 kg/m3; mass density (333.15 K, 35000 kPa): 1155.23 ± 0.37 kg/m3; mass density (333.15 K, 40000 kPa): 1158.08 ± 0.4 kg/m3; mass density (333.15 K, 45000 kPa): 1160.83 ± 0.43 kg/m3; mass density (333.15 K, 50000 kPa): 1163.52 ± 0.46 kg/m3; mass density (333.15 K, 55000 kPa): 1166.14 ± 0.49 kg/m3; mass density (333.15 K, 60000 kPa): 1168.68 ± 0.53 kg/m3; mass density (333.15 K, 65000 kPa): 1171.17 ± 0.57 kg/m3; surface tension liquid-gas (335.65 K): 38.88 ± 0.43 mN/m; kinematic viscosity (335.65 K, 101 kPa): 1.16e-06 ± 1.3e-08 m2/s; speed of sound (335.65 K, 101 kPa): 1340.8 ± 0.89 m/s; mass density (335.65 K, 101 kPa): 1130.41 ± 0.15 kg/m3; vapor or sublimation pressure (336.16 K): 0.305 ± 0.1 kPa; surface tension liquid-gas (338.15 K): 38.58 ± 0.43 mN/m; mass density (338.15 K, 100 kPa): 1127.97 ± 0.23 kg/m3; kinematic viscosity (338.15 K, 101 kPa): 1.12e-06 ± 1.3e-08 m2/s; speed of sound (338.15 K, 101 kPa): 1332.2 ± 0.89 m/s; mass density (338.15 K, 101 kPa): 1128.01 ± 0.15 kg/m3; mass density (338.15 K, 2000 kPa): 1129.47 ± 0.23 kg/m3; mass density (338.15 K, 5000 kPa): 1131.61 ± 0.24 kg/m3; mass density (338.15 K, 7000 kPa): 1133.01 ± 0.25 kg/m3; mass density (338.15 K, 10000 kPa): 1135.08 ± 0.26 kg/m3; mass density (338.15 K, 15000 kPa): 1138.55 ± 0.28 kg/m3; mass density (338.15 K, 20000 kPa): 1141.78 ± 0.29 kg/m3; mass density (338.15 K, 25000 kPa): 1144.86 ± 0.32 kg/m3; mass density (338.15 K, 30000 kPa): 1147.94 ± 0.34 kg/m3; mass density (338.15 K, 35000 kPa): 1150.94 ± 0.37 kg/m3; mass density (338.15 K, 40000 kPa): 1153.82 ± 0.39 kg/m3; mass density (338.15 K, 45000 kPa): 1156.64 ± 0.42 kg/m3; mass density (338.15 K, 50000 kPa): 1159.38 ± 0.45 kg/m3; mass density (338.15 K, 55000 kPa): 1162.04 ± 0.48 kg/m3; mass density (338.15 K, 60000 kPa): 1164.64 ± 0.52 kg/m3; mass density (338.15 K, 65000 kPa): 1167.11 ± 0.56 kg/m3; vapor or sublimation pressure (340.77 K): 0.4 ± 0.1 kPa; vapor or sublimation pressure (342.94 K): 0.45 ± 0.1 kPa; vapor or sublimation pressure (345.74 K): 0.54 ± 0.1 kPa; vapor or sublimation pressure (350.41 K): 0.69 ± 0.1 kPa; vapor or sublimation pressure (356.58 K): 0.955 ± 0.1 kPa; vapor or sublimation pressure (362.84 K): 1.295 ± 0.1 kPa; vapor or sublimation pressure (365.84 K): 1.545 ± 0.1 kPa; vapor or sublimation pressure (371.37 K): 2.02 ± 0.1 kPa; vapor or sublimation pressure (376.26 K): 2.52 ± 0.1 kPa; vapor or sublimation pressure (383.49 K): 3.53 ± 0.1 kPa; vapor or sublimation pressure (389.55 K): 4.545 ± 0.1 kPa; vapor or sublimation pressure (394.16 K): 5.5 ± 0.1 kPa; vapor or sublimation pressure (400.53 K): 7.065 ± 0.1 kPa; vapor or sublimation pressure (407.19 K): 9.015 ± 0.1 kPa; vapor or sublimation pressure (412.74 K): 11.05 ± 0.1 kPa; vapor or sublimation pressure (417.12 K): 13.02 ± 0.1 kPa; vapor or sublimation pressure (421.69 K): 15.2 ± 0.1 kPa; vapor or sublimation pressure (423.25 K): 15.99 ± 0.1 kPa; vapor or sublimation pressure (426.08 K): 17.63 ± 0.1 kPa; vapor or sublimation pressure (429.93 K): 20.05 ± 0.1 kPa; vapor or sublimation pressure (433.16 K): 22.2 ± 0.1 kPa; vapor or sublimation pressure (435.59 K): 24.04 ± 0.1 kPa; vapor or sublimation pressure (438.37 K): 26.19 ± 0.1 kPa; vapor or sublimation pressure (440.66 K): 28.12 ± 0.1 kPa; vapor or sublimation pressure (442.49 K): 29.8 ± 0.1 kPa; vapor or sublimation pressure (445.02 K): 32.16 ± 0.1 kPa
